Source: EP4806435A1, “DIHYDROCHROMENE-DERIVATIVE-CONTAINING THERAPEUTIC AGENT FOR CANCER” (Sumitomo Pharma Co., Ltd., priority 2023, dated 2025)
Like-named read-outs stand apart in the source and are kept apart here.

Test: Phase 1 clinical trial: plasma pharmacokinetics
Format: in vivo, human
Settings: for Tmax / half-life / Cmax / AUC / AUC(0-t): human, plasma, oral; for half-life: read-out: Effective T1/2 (converted); for AUC: tau = 24 hours
Experimental: Summary statistics based on preliminary data were obtained for the pharmacokinetics of Compound 1 in patients receiving once-daily doses ranging from 20 mg to 240 mg (Table 5). The mean plasma concentration-time curves of Compound 1 in the once-daily dose groups ranging from 20 mg to 240 mg are shown in Figure 11. In this study, one cycle consists of 28 days, and Cycle 1 Day 1 refers to Day 1 of the first cycle. […] Accumulation was observed after repeated administration. […] Based on these accumulation ratios, the half-life of Compound 1 was estimated to be approximately 4 days. Based on the currently available data, plasma concentrations are considered to have reached steady state by Day 15.
Summary statistics based on preliminary data were obtained for the pharmacokinetics of Compound 1 in patients in the 20 mg QD, 40 mg QD, 80 mg QD, 120 mg QD, 180 mg QD, 240 mg QD, 360 mg QD, and 480 mg daily (240 mg BID) dose groups (Table 6). The mean plasma concentration-time curves of Compound 1 in the 20 mg QD to 480 mg daily (240 mg BID) dose groups are shown in Figure 12 (in Figure 12, Compound 1 is denoted as "DSP-0390"). In this study, one cycle consists of 28 days, and Cycle 1 Day 1 refers to Day 1 of the first cycle. […] The median Tmax ranged from 2 to 8 hours. Accumulation was observed after repeated administration, and assuming linearity based on the observed accumulation ratios, the estimated elimination half-life was considered to be on the order of several days (approximately 1 to 6 days) (data cut-off: March 2024).

[1] = 480 mg (240 mg BID), cut-off March 2024

CC1(C)Oc2cc(Cl)ccc2[C@@H]2OCC3(CCN(CCn4ccnc4)CC3)C[C@H]21 [Compound 1, (4'aR,10'bR)-8'-chloro-1-[2-(1H-imidazol-1-yl)ethyl]-5',5'-dimethyl-4'a,10'b-dihydro-2'H,4'H,5'H-spiro[piperidine-4,3'-pyrano[3,2-c][1]benzopyran] diphosphate]
AR AUC (accumulation ratio) (20 mg QD, cut-off March 2024): 7.31
AR Cmax (accumulation ratio) (20 mg QD, cut-off March 2024): 6.52
AR AUC (mean accumulation ratio) (20 mg, QD, cut-off April 2023): 7.4
AR Cmax (mean accumulation ratio) (20 mg, QD, cut-off April 2023): 6.1
AR AUC (accumulation ratio) (40 mg QD, cut-off March 2024): 8.93
AR Cmax (accumulation ratio) (40 mg QD, cut-off March 2024): 6.04
AR AUC (mean accumulation ratio) (40 mg, QD, cut-off April 2023): 8.6
AR Cmax (mean accumulation ratio) (40 mg, QD, cut-off April 2023): 6.2
AR AUC (accumulation ratio) (80 mg QD, cut-off March 2024): 4.47
AR Cmax (accumulation ratio) (80 mg QD, cut-off March 2024): 3.70
AR AUC (mean accumulation ratio) (80 mg, QD, cut-off April 2023): 6.9
AR Cmax (mean accumulation ratio) (80 mg, QD, cut-off April 2023): 5.8
AR AUC (accumulation ratio) (120 mg QD, cut-off March 2024): 4.52
AR Cmax (accumulation ratio) (120 mg QD, cut-off March 2024): 3.53
AR AUC (mean accumulation ratio) (120 mg, QD, cut-off April 2023): 5.3
AR Cmax (mean accumulation ratio) (120 mg, QD, cut-off April 2023): 4.6
AR AUC (accumulation ratio) (180 mg QD, cut-off March 2024): 3.55
AR Cmax (accumulation ratio) (180 mg QD, cut-off March 2024): 1.89
AR AUC (mean accumulation ratio) (180 mg, QD, N=1, cut-off April 2023): 3.9
AR Cmax (mean accumulation ratio) (180 mg, QD, cut-off April 2023): 2
AR AUC (accumulation ratio) (240 mg QD, cut-off March 2024): 3.29
AR Cmax (accumulation ratio) (240 mg QD, cut-off March 2024): 1.79
AR AUC (mean accumulation ratio) (240 mg, QD, N=1, cut-off April 2023): 3.9
AR Cmax (mean accumulation ratio) (240 mg, QD, cut-off April 2023): 2.6
AR AUC (accumulation ratio) (360 mg QD, cut-off March 2024): 2.07
AR Cmax (accumulation ratio) (360 mg QD, cut-off March 2024): 1.36
AR AUC (accumulation ratio) [1]: 1.61
AR Cmax (accumulation ratio) [1]: 2.42
half-life estimated from accumulation ratios (cut-off April 2023): approximately 4 days
Tmax (20 mg QD to 480 mg daily (240 mg BID), cut-off March 2024, read-out: median Tmax, range over dose groups): 2 to 8 h
half-life (20 mg, 20 mg QD, cut-off March 2024): 113 h
Cmax (20 mg, Cycle 1, Day 1, 20 mg QD, cut-off March 2024, read-out: Cmax): 4.28 ng/mL
Tmax (20 mg, Cycle 1, Day 1, 20 mg QD, cut-off March 2024, read-out: Tmax [a] median value): 6 h
AUC (20 mg, Cycle 1, Day 1, 20 mg QD, cut-off March 2024, read-out: AUCtau [b]): 76.6 ng·h/mL
AUC(0-t) (20 mg, Cycle 1 Day 1, 20 mg, QD, cut-off April 2023, read-out: AUC0-24 (geometric mean)): 76 ng·h/mL
AUC(0-t) (20 mg, Cycle 1 Day 1, 20 mg, QD, cut-off April 2023, read-out: AUC0-24 (mean)): 77 ng·h/mL
AUC(0-t) (20 mg, Cycle 1 Day 1, 20 mg, QD, cut-off April 2023, read-out: AUC0-24 (median)): 77 ng·h/mL
Cmax (20 mg, Cycle 1 Day 1, 20 mg, QD, cut-off April 2023, read-out: Cmax (geometric mean)): 4 ng/mL
Cmax (20 mg, Cycle 1 Day 1, 20 mg, QD, cut-off April 2023, read-out: Cmax (mean)): 4 ng/mL
Cmax (20 mg, Cycle 1 Day 1, 20 mg, QD, cut-off April 2023, read-out: Cmax (median)): 4 ng/mL
Tmax (20 mg, Cycle 1 Day 1, 20 mg, QD, cut-off April 2023, read-out: Tmax (mean)): 6 h
Tmax (20 mg, Cycle 1 Day 1, 20 mg, QD, cut-off April 2023, read-out: Tmax (median)): 6 h
Cmax (20 mg, Cycle 2, Day 1, 20 mg QD, cut-off March 2024, read-out: Cmax,ss): 27.9 ng/mL
Tmax (20 mg, Cycle 2, Day 1, 20 mg QD, cut-off March 2024, read-out: Tmax,ss [a] median value): 7 h
AUC (20 mg, Cycle 2, Day 1, 20 mg QD, cut-off March 2024, read-out: AUCtau,ss [b]): 560 ng·h/mL
AUC(0-t) (20 mg, Cycle 2 Day 1, 20 mg, QD, cut-off April 2023, read-out: AUC0-24 (geometric mean)): 557 ng·h/mL
AUC(0-t) (20 mg, Cycle 2 Day 1, 20 mg, QD, cut-off April 2023, read-out: AUC0-24 (mean)): 561 ng·h/mL
AUC(0-t) (20 mg, Cycle 2 Day 1, 20 mg, QD, cut-off April 2023, read-out: AUC0-24 (median)): 561 ng·h/mL
Cmax (20 mg, Cycle 2 Day 1, 20 mg, QD, cut-off April 2023, read-out: Cmax (geometric mean)): 28 ng/mL
Cmax (20 mg, Cycle 2 Day 1, 20 mg, QD, cut-off April 2023, read-out: Cmax (mean)): 28 ng/mL
Cmax (20 mg, Cycle 2 Day 1, 20 mg, QD, cut-off April 2023, read-out: Cmax (median)): 28 ng/mL
Tmax (20 mg, Cycle 2 Day 1, 20 mg, QD, cut-off April 2023, read-out: Tmax (mean)): 7 h
Tmax (20 mg, Cycle 2 Day 1, 20 mg, QD, cut-off April 2023, read-out: Tmax (median)): 7 h
half-life (40 mg, 40 mg QD, cut-off March 2024): 139 h
Cmax (40 mg, Cycle 1, Day 1, 40 mg QD, cut-off March 2024, read-out: Cmax): 9.87 ng/mL
Tmax (40 mg, Cycle 1, Day 1, 40 mg QD, cut-off March 2024, read-out: Tmax [a] median value): 8 h
AUC (40 mg, Cycle 1, Day 1, 40 mg QD, cut-off March 2024, read-out: AUCtau [b]): 131 ng·h/mL
AUC(0-t) (40 mg, Cycle 1 Day 1, 40 mg, QD, cut-off April 2023, read-out: AUC0-24 (geometric mean)): 123 ng·h/mL
AUC(0-t) (40 mg, Cycle 1 Day 1, 40 mg, QD, cut-off April 2023, read-out: AUC0-24 (mean)): 132 ng·h/mL
AUC(0-t) (40 mg, Cycle 1 Day 1, 40 mg, QD, cut-off April 2023, read-out: AUC0-24 (median)): 107 ng·h/mL
Cmax (40 mg, Cycle 1 Day 1, 40 mg, QD, cut-off April 2023, read-out: Cmax (geometric mean)): 8 ng/mL
Cmax (40 mg, Cycle 1 Day 1, 40 mg, QD, cut-off April 2023, read-out: Cmax (mean)): 10 ng/mL
Cmax (40 mg, Cycle 1 Day 1, 40 mg, QD, cut-off April 2023, read-out: Cmax (median)): 7 ng/mL
Tmax (40 mg, Cycle 1 Day 1, 40 mg, QD, cut-off April 2023, read-out: Tmax (mean)): 11 h
Tmax (40 mg, Cycle 1 Day 1, 40 mg, QD, cut-off April 2023, read-out: Tmax (median)): 8 h
Cmax (40 mg, Cycle 2, Day 1, 40 mg QD, cut-off March 2024, read-out: Cmax,ss): 59.6 ng/mL
Tmax (40 mg, Cycle 2, Day 1, 40 mg QD, cut-off March 2024, read-out: Tmax,ss [a] median value): 4 h
AUC (40 mg, Cycle 2, Day 1, 40 mg QD, cut-off March 2024, read-out: AUCtau,ss [b]): 1170 ng·h/mL
AUC(0-t) (40 mg, Cycle 2 Day 1, 40 mg, QD, cut-off April 2023, read-out: AUC0-24 (geometric mean)): 1110 ng·h/mL
AUC(0-t) (40 mg, Cycle 2 Day 1, 40 mg, QD, cut-off April 2023, read-out: AUC0-24 (mean)): 1180 ng·h/mL
AUC(0-t) (40 mg, Cycle 2 Day 1, 40 mg, QD, cut-off April 2023, read-out: AUC0-24 (median)): 1370 ng·h/mL
Cmax (40 mg, Cycle 2 Day 1, 40 mg, QD, cut-off April 2023, read-out: Cmax (geometric mean)): 56 ng/mL
Cmax (40 mg, Cycle 2 Day 1, 40 mg, QD, cut-off April 2023, read-out: Cmax (mean)): 60 ng/mL
Cmax (40 mg, Cycle 2 Day 1, 40 mg, QD, cut-off April 2023, read-out: Cmax (median)): 72 ng/mL
Tmax (40 mg, Cycle 2 Day 1, 40 mg, QD, cut-off April 2023, read-out: Tmax (mean)): 5 h
Tmax (40 mg, Cycle 2 Day 1, 40 mg, QD, cut-off April 2023, read-out: Tmax (median)): 4 h
half-life (80 mg, 80 mg QD, cut-off March 2024): 64.8 h
Cmax (80 mg, Cycle 1, Day 1, 80 mg QD, cut-off March 2024, read-out: Cmax): 17.1 ng/mL
Tmax (80 mg, Cycle 1, Day 1, 80 mg QD, cut-off March 2024, read-out: Tmax [a] median value): 8 h
AUC (80 mg, Cycle 1, Day 1, 80 mg QD, cut-off March 2024, read-out: AUCtau [b]): 264 ng·h/mL
AUC(0-t) (80 mg, Cycle 1 Day 1, 80 mg, QD, cut-off April 2023, read-out: AUC0-24 (geometric mean)): 203 ng·h/mL
AUC(0-t) (80 mg, Cycle 1 Day 1, 80 mg, QD, cut-off April 2023, read-out: AUC0-24 (mean)): 268 ng·h/mL
AUC(0-t) (80 mg, Cycle 1 Day 1, 80 mg, QD, cut-off April 2023, read-out: AUC0-24 (median)): 205 ng·h/mL
Cmax (80 mg, Cycle 1 Day 1, 80 mg, QD, cut-off April 2023, read-out: Cmax (geometric mean)): 13 ng/mL
Cmax (80 mg, Cycle 1 Day 1, 80 mg, QD, cut-off April 2023, read-out: Cmax (mean)): 17 ng/mL
Cmax (80 mg, Cycle 1 Day 1, 80 mg, QD, cut-off April 2023, read-out: Cmax (median)): 15 ng/mL
Tmax (80 mg, Cycle 1 Day 1, 80 mg, QD, cut-off April 2023, read-out: Tmax (mean)): 8 h
Tmax (80 mg, Cycle 1 Day 1, 80 mg, QD, cut-off April 2023, read-out: Tmax (median)): 8 h
Cmax (80 mg, Cycle 2, Day 1, 80 mg QD, cut-off March 2024, read-out: Cmax,ss): 63.2 ng/mL
Tmax (80 mg, Cycle 2, Day 1, 80 mg QD, cut-off March 2024, read-out: Tmax,ss [a] median value): 8 h
AUC (80 mg, Cycle 2, Day 1, 80 mg QD, cut-off March 2024, read-out: AUCtau,ss [b]): 1180 ng·h/mL
AUC(0-t) (80 mg, Cycle 2 Day 1, 80 mg, QD, cut-off April 2023, read-out: AUC0-24 (geometric mean)): 1100 ng·h/mL
AUC(0-t) (80 mg, Cycle 2 Day 1, 80 mg, QD, cut-off April 2023, read-out: AUC0-24 (mean)): 1190 ng·h/mL
AUC(0-t) (80 mg, Cycle 2 Day 1, 80 mg, QD, cut-off April 2023, read-out: AUC0-24 (median)): 1110 ng·h/mL
Cmax (80 mg, Cycle 2 Day 1, 80 mg, QD, cut-off April 2023, read-out: Cmax (geometric mean)): 58 ng/mL
Cmax (80 mg, Cycle 2 Day 1, 80 mg, QD, cut-off April 2023, read-out: Cmax (mean)): 63 ng/mL
